Experimental data reported in patent US20230140290A1, “SALICYLAMIDE DERIVATIVES AND RELATED METHODS OF MAKING” (THE BOARD OF REGENTS OF THE UNIVERSITY OF TEXAS SY, priority 2020, published 2023).
Values joined by “and” are separate entries in the source; they are usually repeats but may differ in a detail not shown here. Equal values may be shown once.

Key:
A549 cells = experiment: Cytotoxicity assay (AlamarBlue); conditions: read-out: CC50 (μM), cytotoxic concentration 50%; A549 cell line, 48 h
Experimental: (§1) Cytotoxicity Assay. The cytotoxicity of the compounds was analyzed by commercial kit AlamarBlue® (Invitrogen, Ref. DAL1025). A549 cells at a density of 5×10^3 cells per well in 96-well plates were seeded. […] Cells were then incubated at 37° C. for 48 h following the kit protocol. The cytotoxic concentration 50 (CC50) value was obtained using the statistical package GraphPad Prism. This assay was performed in duplicate.

[1] = Cytotoxicity assay (AlamarBlue); conditions: human, A549 cells
Experimental: as §1

HAdV5-GFP [2] = experiment: Plaque assay (inhibition of HAdV plaque formation); assay type: cell-based, HAdV-5; conditions: for Selectivity index (SI): ratio of CC50 to IC50 in plaque assay; for inhibition at 10 µM: read-out: Plaque Assay (%) Inhibition (10 μM)
Method in brief: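 Compounds were present in the post-infection mixture at 10 μM, or at 10 to 0.3 μM for dose-response. Infection used low MOI HAdV5-GFP (0.06 vp/cell) on 80-90% confluent cells, 2 h rocking at 37° C, then a PBS wash.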

wild-type HAdV5 [3] = experiment: Nuclear-associated HAdV genomes (real-time PCR); assay type: cell-based, HAdV-5
Experimental: (§2) Nuclear-Associated HAdV Genomes. The nuclear delivery of HAdV genomes was assessed by real-time PCR following nuclear isolation from infected cells. […] Forty-five minutes after infection, A549 cells were trypsinized and collected and then washed twice with PBS. Then, cytoplasmic and nuclear fractions were separated using a hypotonic buffer solution and NP-40 detergent. The cell pellet was resuspended in 500 μL of 1×hypotonic buffer (20 mM Tris-HCl pH 7.4, 10 mM NaCl, 3 mM MgCl2) and incubated for 15 min at 4° C. Then, 25 μL of NP-40 was added and the samples were vortexed. The homogenates were centrifuged for 10 min at 835 g at 4° C. Following the removal of the cytoplasmic fraction (supernatant), HAdV DNA was isolated from the nuclear fraction (pellet) and from the cytoplasmic fraction using the QIAamp DNA Mini Kit (QIAGEN, Valencia, Calif.).
as §2, with “E.Z.N.A.® Tissue” for “QIAamp”, “DNA” for “DNA Mini”, “(Omega Bio-tek, Norcross, Ga.).” for “(QIAGEN, Valencia, Calif.).”

wild-type HAdV5 [4] = experiment: HAdV DNA quantification by real-time PCR (DNA replication); assay type: cell-based, HAdV-5; conditions: 24 h
Experimental: DNA Quantification by Real-Time PCR. […] Infected cells were incubated 24 h at 37° C. in 500 μL of complete DMEM containing 25 μM of either compounds or the same volume of DMSO (positive control). All samples were done in duplicate. After 24 h of incubation at 37° C., DNA was purified from the cell lysate with the QIAamp DNA Mini Kit (QIAGEN, Valencia, Calif.) following the manufacturer's instructions. TaqMan primers and probes for a common region of the HAdV5 were designed with the GenScript Real-Time PCR (TaqMan) Primer Design software (GenScript). […] Real-time PCR mixtures consisted of 9.5 μL of the purified DNA, AQ1 and AQ2 at a concentration of 200 nM each and Probe at a concentration of 50 nM in a total volume of 25 μL. The PCR cycling protocol was 95° C. for 3 min followed by 40 cycles of 95° C. for 10 s and 60° C. for 30 s. Human glyceraldehyde-3-phosphate dehydrogenase (GAPDH) gene was used as internal control. Oligonucleotides sequences for GAPDH and conditions were those previously reported by Henke-Gendo et al. (2012).
For quantification, gene fragments from hexon, and GAPDH were cloned into the pGEM-T Easy vector (Promega) and known concentrations of template were used to generate a standard curve in parallel for each experiment. All assays were performed in thermal cycler LightCycler® 96 System (Roche).
(§3) HAdV DNA Quantification by Real-Time PCR. […] All samples were done in duplicate. After 24 h of incubation at 37° C., DNA was purified from the cell lysate with the E.Z.N.A.® Tissue DNA Kit (Omega Bio-tek, Norcross, Ga.) following the manufacturer's instructions. TaqMan primers and probes for a common region of the HAdV5 were designed with the GenScript Real-Time PCR (TaqMan) Primer Design software (GenScript). […] Real-time PCR mixtures consisted of 9.5 μL of the purified DNA, AQ1 and AQ2 at a concentration of 200 nM each and Probe at a concentration of 50 nM in a total volume of 25 μL. The PCR cycling protocol was 95° C. for 3 min followed by 40 cycles of 95° C. for 10 s and 60° C. for 30 s. Human glyceraldehyde-3-phosphate dehydrogenase (GAPDH) gene was used as internal control. Oligonucleotides sequences for GAPDH and conditions were those previously reported by Henke-Gendo et al. (2012).
as §3, with “DNA” for “HAdV DNA”

HAdV5-GFP [5] = experiment: Entry assay (HAdV5-mediated GFP expression); assay type: cell-based, HAdV-5; conditions: for inhibition at 50 µM: A549, 48 h, read-out: (%) Inhibition Entry Assay (50 μM)
Experimental: Entry Assay. The anti-HAdV activity was measured in an entry assay using human A549 epithelial cells (3×10^5 cells/well in coming black wall, clear bottom 96-well plates) infected with HAdV5-GFP (2000 vp/cell) in the presence 50 μM of the candidates and in a dose-response assay. A standard infection curve was generated in parallel by infecting cells in the absence of compounds using serial 2-fold dilutions of virus. All reactions were done in triplicate. Cells, virus, and drugs were incubated for 48 h at 37° C. and 5% CO2.

[6] = FIG. 5A, 45 min post-infection, 10-fold plaque IC50
[7] = read-out: Plaque Assay IC50 (μM), HAdV5-GFP, low MOI, 293β5 cell line
[8] = A549, read-out: IC50 Entry Assay (μM), HAdV5-GFP, high MOI, A549 cell line
[9] = HAdV5-GFP, low MOI, 293β5 cell line, read-out: Plaque Assay IC50

With `O=C(Nc1ccc(NCc2cccnc2Cl)cc1Cl)c1cc(Cl)ccc1O` [Compound 109, 5-Chloro-N-(2-chloro-4-(((2-chloropyridin-3-yl)methyl)amino)phenyl)-2-hydroxybenzamide] the CC50 (A549 cells) was 100 ± 29.8 µM, the CC50 at 48 h [1] was 65.3 to 126 µM and the “Selectivity index (SI)” value (HAdV5-GFP [2]) was 21.0. The inhibition at 10 µM (HAdV5-GFP [2]) was 100%.

For `CC(CCO)Nc1ccc(NC(=O)c2cc(Cl)ccc2O)c(Cl)c1` (stereo not shown) [Compound 119, 5-Chloro-N-(2-chloro-4-((4-hydroxybutan-2-yl)amino)phenyl)-2-hydroxybenzamide], the “amount of nuclear-associated HAdV genomes versus DMSO” value (wild-type HAdV5 [3]; [6]) was “no significant differences”, the “inhibition of HAdV-5 DNA replication (qPCR)” value (shortened to “inhibition … (qPCR)”) (wild-type HAdV5 [4]; FIG. 6A, 10-fold plaque IC50) was “low inhibition” and the CC50 (A549 cells) was 200 µM. The “Selectivity index (SI)” value (HAdV5-GFP [2]) was 166.7, the inhibition at 10 µM (HAdV5-GFP [2]) was 96.9 ± 2.4% and the IC50 (HAdV5-GFP [2]; [7]) was 1.2 µM. For the same compound, the inhibition at 50 µM (HAdV5-GFP [5]) was 88.6%.

For `O=C(Nc1cc(F)cc(C(F)(F)F)c1)c1ccc(Cl)cc1O` [Compound 20, 4-Chloro-N-(3-fluoro-5-(trifluoromethyl)phenyl)-2-hydroxybenzamide], the “amount of nuclear-associated HAdV genomes versus DMSO” value (wild-type HAdV5 [3]; FIG. 3, 45 min post infection, concentrations by CC50 (2-50 μM)) was “partially inhibited”, the “inhibition … (qPCR)” value (wild-type HAdV5 [4]; FIG. 4, concentrations by CC50 (2-50 μM)) was “low inhibition” and the CC50 (A549 cells) was 20.6 µM. The “Selectivity index (SI)” value (HAdV5-GFP [2]) was 186.8, the inhibition at 10 µM (HAdV5-GFP [2]) was 96.8 ± 1.9% and the IC50 (HAdV5-GFP [2]; [7]) was 0.11 µM. It also gave an inhibition at 50 µM (HAdV5-GFP [5]) of 100% and an IC50 (HAdV5-GFP [5]; [8]) of 0.26 ± 0.09 µM.

Work on `O=C(Nc1ccc(NCc2cnccc2Cl)cc1Cl)c1cc(Cl)ccc1O` [Compound 110, 5-Chloro-N-(2-chloro-4-(((4-chloropyridin-3-yl)methyl)amino)phenyl)-2-hydroxybenzamide] yielded a CC50 (A549 cells) of 126 ± 25.1 µM, a CC50 at 48 h [1] of 65.3 to 126 µM and an IC50 (HAdV5-GFP [2]; [9]) of 1.66 to 4.78 µM. For the same compound, the “Selectivity index (SI)” value (HAdV5-GFP [2]) was 75.7, the inhibition at 10 µM (HAdV5-GFP [2]) was 100% and the IC50 (HAdV5-GFP [2]; {}) was 1.66 ± 0.42 µM.

With `CC(C)(CCO)Nc1ccc(NC(=O)c2cc(Cl)ccc2O)c(Cl)c1` [Compound 118, 5-Chloro-N-(2-chloro-4-((4-hydroxy-2-methylbutan-2-yl)amino)phenyl)-2-hydroxybenzamide] the “amount of nuclear-associated HAdV genomes versus DMSO” value (wild-type HAdV5 [3]; [6]) was “no significant differences”, the “inhibition … (qPCR)” value (wild-type HAdV5 [4]; FIG. 6A, 10-fold plaque IC50) was “low inhibition” and the CC50 (A549 cells) was 170 ± 4.2 µM. The “Selectivity index (SI)” value (HAdV5-GFP [2]) was 188.3, the inhibition at 10 µM (HAdV5-GFP [2]) was 92.3% and the IC50 (HAdV5-GFP [2]; [7]) was 0.9 µM. The inhibition at 50 µM (HAdV5-GFP [5]) was 42.1 ± 3% and the IC50 (HAdV5-GFP [5]; [8]) was over 50 µM.

For `C[C@@H](NC(=O)c1cc(Cl)ccc1O)c1ccc(F)cc1` [Compound 49, (R)-5-Chloro-N-(1-(4-fluorophenyl)ethyl)-2-hydroxybenzamide], the CC50 at 48 h [1] was over 200 µM, the “Selectivity index (SI)” value (HAdV5-GFP [2]) was 57.8 and 66.2 and the inhibition at 10 µM (HAdV5-GFP [2]) was 100%. The IC50 (HAdV5-GFP [2]; [7]) was 3.02 µM.

With `O=C(Nc1ccc(NCc2ccc(O)nc2)cc1Cl)c1cc(Cl)ccc1O` [Compound 112, 5-Chloro-N-(2-chloro-4-(((6-hydroxypyridin-3-yl)methyl)amino)phenyl)-2-hydroxybenzamide] the “amount of nuclear-associated HAdV genomes versus DMSO” value (wild-type HAdV5 [3]; [6]) was “significant reductions”, the “inhibition … (qPCR)” value (wild-type HAdV5 [4]; FIG. 6A, 10-fold plaque IC50) was “low inhibition” and the CC50 (A549 cells) was 98.5 µM. The “Selectivity index (SI)” value (HAdV5-GFP [2]) was 126.3, the inhibition at 10 µM (HAdV5-GFP [2]) was 100% and the IC50 (HAdV5-GFP [2]; [7]) was 0.78 µM. The inhibition at 50 µM (HAdV5-GFP [5]) was 51.7 ± 9.8% and the IC50 (HAdV5-GFP [5]; [8]) was over 50 µM.

With `Nc1ccn(C[C@@H](CO)OCP(=O)(O)O)c(=O)n1` [cidofovir, reference compound] the CC50 at 48 h [1] was 50.1 ± 9.8 µM, the “Selectivity index (SI)” value (HAdV5-GFP [2]) was 7.5 and the IC50 (HAdV5-GFP [2]; [7]) was 24.1 ± 5.9 µM.

For `CC(C)(NC(=O)c1cc(Cl)ccc1O)c1ccc(F)cc1` [Compound 51, 5-Chloro-N-(2-(4-fluorophenyl)propan-2-yl)-2-hydroxybenzamide], the CC50 at 48 h [1] was over 200 µM, the “Selectivity index (SI)” value (HAdV5-GFP [2]) was 39.1 and 57.8 and the inhibition at 10 µM (HAdV5-GFP [2]) was 100%. The IC50 (HAdV5-GFP [2]; [7]) was 3.46 µM.

`O=C(Nc1ccc(NCc2ccncc2)cc1Cl)c1cc(Cl)ccc1O` [Compound 108, 5-Chloro-N-(2-chloro-4-((pyridin-4-ylmethyl)amino)phenyl)-2-hydroxybenzamide] showed a CC50 (A549 cells) of 65.3 ± 5.7 µM, a CC50 at 48 h [1] of 65.3 to 126 µM and an IC50 (HAdV5-GFP [2]; [9]) of 1.66 to 4.78 µM. The “Selectivity index (SI)” value (HAdV5-GFP [2]) was 24.6, the inhibition at 10 µM (HAdV5-GFP [2]) was 100% and the IC50 (HAdV5-GFP [2]; {}) was 2.66 ± 0.17 µM.

With `O=C(Nc1ccc(NCc2cccc(Br)n2)cc1Cl)c1cc(Cl)ccc1O` [Compound 111, N-(4-(((6-Bromopyridin-2-yl)methyl)amino)-2-chlorophenyl)-5-chloro-2-hydroxybenzamide] the CC50 (A549 cells) was 92.3 ± 9.5 µM, the CC50 at 48 h [1] was 65.3 to 126 µM and the IC50 (HAdV5-GFP [2]; [9]) was 1.66 to 4.78 µM. The “Selectivity index (SI)” value (HAdV5-GFP [2]) was 40.8, the inhibition at 10 µM (HAdV5-GFP [2]) was 100% and the IC50 (HAdV5-GFP [2]; {}) was 2.26 ± 0.05 µM.

In the case of `O=C(Nc1ccc(NCc2ccc(O)cc2)cc1Cl)c1cc(Cl)ccc1O` [Compound 101, 5-Chloro-N-(2-chloro-4-((4-hydroxybenzyl)amino)phenyl)-2-hydroxybenzamide], the “amount of nuclear-associated HAdV genomes versus DMSO” value (wild-type HAdV5 [3]; [6]) is reported as “significant reductions”, the “inhibition … (qPCR)” value (wild-type HAdV5 [4]; FIG. 6A, 10-fold plaque IC50) is reported as “low inhibition” and the CC50 (A549 cells) is reported as 116 µM. For the same compound, the “Selectivity index (SI)” value (HAdV5-GFP [2]) was 104.1, the inhibition at 10 µM (HAdV5-GFP [2]) was 80.7 ± 9.1% and the IC50 (HAdV5-GFP [2]; [7]) was 1.11 µM. It also gave an inhibition at 50 µM (HAdV5-GFP [5]) of 83.3%, an IC50 (HAdV5-GFP [5]; [8]) of 15.2 to 30.8 µM and an IC50 (HAdV5-GFP [5]; {}) of 25 ± 6.9 µM.
